Our source for the IC50 values is patent US20250163104A1, “MACROCYCLIC IMMUNOMODULATORS” (priority 2021, published 2025).

The term IC50 denotes the point on the concentration scale where inhibition reaches its midpoint.

Where a SMILES comes first, the peptide text is derived from it. Bridges are numbered along the chain shown (N, C = ends). [ ]: non-standard residue; d: D form. The star is where a group is joined. ξ: configuration not given here. Phe(4-COOH) = N[C@@H](Cc1ccc(C(=O)O)cc1)C(=O)O; Bip = N[C@@H](Cc1ccc(-c2ccccc2)cc1)C(=O)O; Phe(3-CN) = N#Cc1cccc(C[C@H](N)C(=O)O)c1; Phe(3-Cl) = N[C@@H](Cc1cccc(Cl)c1)C(=O)O; Phe(3-Me) = Cc1cccc(C[C@H](N)C(=O)O)c1; Phe(4-Me) = Cc1ccc(C[C@H](N)C(=O)O)cc1; Dap(N3) = [N-]=[N+]=NC[C@H](N)C(=O)O; Gly(cPent) = N[C@H](C(=O)O)C1CCCC1; Val(3-OH) = CC(C)(O)[C@H](N)C(=O)O; mTyr = N[C@@H](Cc1cccc(O)c1)C(=O)O; aIle = CC[C@@H](C)[C@H](N)C(=O)O; 4Pal = N[C@@H](Cc1ccncc1)C(=O)O; Cha = N[C@@H](CC1CCCCC1)C(=O)O; Cit = NC(=O)NCCC[C@H](N)C(=O)O; Ile(3ξ) = CCC(C)[C@H](N)C(=O)O; dCha = N[C@H](CC1CCCCC1)C(=O)O; Thr(3ξ) = CC(O)[C@H](N)C(=O)O; Carboxymethyl = O=C(O)C*; Orn = NCCC[C@H](N)C(=O)O; Pra = C#CC[C@H](N)C(=O)O; Dab = NCC[C@H](N)C(=O)O; Dap = NC[C@H](N)C(=O)O

The target of this assay is T1, human PD-1 / PD-L1-Ig binding on Jurkat cell line over-expressing human PD-1 (Jurkat-PD-1) (Homo sapiens, UniProt Q15116).
T1 construct: expressed in transfected cells; host or cells: Jurkat
The assay is described as follows: Jurkat-PD-1 Cell Binding High-Content Screening Assay (CBA). The note with it: Jurkat-PD-1 cells, PE-labeled PD-L1-Ig 20 nM final; read-out: Jurkat HPD1_PDL1 IC50. The assay is classed as cell-based. In a few lines: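 Compounds were preincubated with Jurkat-hPD-1 cells in DMEM plus 10% fetal calf serum for 2 h at 37° C. Phycoerythrin-labeled PD-L1-Ig (20 nM final) was then added for 1 hour. Cells were fixed in 4% paraformaldehyde with Hoechst 33342, and bound fluorescence was quantified by high-content imaging.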

T1 sequence (Q15116 25-288): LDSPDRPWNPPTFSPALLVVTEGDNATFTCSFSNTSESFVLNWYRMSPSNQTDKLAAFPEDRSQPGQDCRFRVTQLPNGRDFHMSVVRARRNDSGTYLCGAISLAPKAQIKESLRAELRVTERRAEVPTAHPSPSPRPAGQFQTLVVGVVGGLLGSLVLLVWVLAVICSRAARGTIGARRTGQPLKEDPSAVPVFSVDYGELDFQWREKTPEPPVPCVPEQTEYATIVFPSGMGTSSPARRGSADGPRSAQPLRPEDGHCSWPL

`CC(C)C[C@H]1NC(=O)[C@H](CCCN)NC(=O)[C@H](CCCNC(N)=O)NC(=O)[C@H](Cc2ccc(-c3ccccc3)cc2)NC(=O)[C@H](C2CCCC2)NC(=O)[C@H](Cc2c[nH]c3ccccc23)NC(=O)[C@H](CC(=O)O)NC(=O)[C@H](Cc2ccc(OCC(=O)O)cc2)NC(=O)[C@H](CN)NC(=O)CSC[C@@H](C(=O)N[C@@H](C)C(N)=O)NC(=O)[C@H]([C@@H](C)O)NC(=O)[C@H](C(C)C)NC(=O)[C@H](CC2CCCCC2)NC(=O)[C@H](CCN)NC1=O` [Compound 1368] ({CH2CO}-[Dap]Y(Carboxymethyl)DW[Gly(cPent)][Bip][Cit][Orn][dL][Dab][Cha]VTCA-NH2; thioether N-14): the IC50 came out at 7.1 nM.

As to `CC[C@H](C)[C@@H]1NC(=O)[C@H](Cc2ccc(-c3ccccc3)cc2)NC(=O)[C@H](C(C)C)NC(=O)[C@H](Cc2cccc(C)c2)NC(=O)[C@H](CC(=O)O)NC(=O)[C@H](Cc2ccc(C(=O)O)cc2)NC(=O)[C@H](Cc2ccncc2)NC(=O)CSC[C@@H](C(=O)N[C@@H](C)C(N)=O)NC(=O)[C@H]([C@@H](C)O)NC(=O)[C@H](C(C)C)NC(=O)[C@H](CC2CCCCC2)NC(=O)[C@H](CCN)NC(=O)[C@@H](CC(C)C)NC(=O)[C@H](CCCN)NC1=O` [Compound 1192], the IC50 was determined as 7.1 nM.

Consider `Cc1cccc(C[C@@H]2NC(=O)[C@H](CC(=O)O)NC(=O)[C@H](Cc3ccc(C(=O)O)cc3)NC(=O)[C@H](Cc3ccncc3)NC(=O)CSC[C@@H](C(=O)N[C@H](CC(N)=O)C(N)=O)NC(=O)[C@H](CO)NC(=O)[C@H](C(C)C)NC(=O)[C@H](CC3CCCCC3)NC(=O)[C@H](CCN)NC(=O)[C@@H](CC(C)C)NC(=O)[C@H](CCCN)NC(=O)[C@H](Cc3ccc(O)cc3)NC(=O)[C@H](Cc3ccc(-c4ccccc4)cc3)NC(=O)[C@H](Cc3ccc(O)cc3)NC2=O)c1` [Compound 2286] ({CH2CO}-[4Pal][Phe(4-COOH)]D[Phe(3-Me)]Y[Bip]Y[Orn][dL][Dab][Cha]VSC[dN]-NH2; thioether N-14), for which the IC50 amounted to 8.9 nM.

As to `CC(C)C[C@H]1NC(=O)[C@H](CCCN)NC(=O)[C@H](C(C)C)NC(=O)[C@H](Cc2ccc(-c3ccccc3)cc2)NC(=O)[C@H](C(C)C)NC(=O)[C@H](Cc2cccc(Cl)c2)NC(=O)[C@H](CC(=O)O)NC(=O)[C@H](Cc2ccncc2)NC(=O)[C@H](CN)NC(=O)CSC[C@@H](C(=O)N[C@@H](C)C(N)=O)NC(=O)[C@H]([C@@H](C)O)NC(=O)[C@H](C(C)C)NC(=O)[C@H](CC2CCCCC2)NC(=O)[C@H](CCN)NC1=O` [Compound 1578] ({CH2CO}-[Dap][4Pal]D[Phe(3-Cl)]V[Bip]V[Orn][dL][Dab][Cha]VTCA-NH2; thioether N-14), the IC50 is 35 nM.

Regarding `CC(C)[C@@H]1NC(=O)[C@H](Cc2c[nH]c3ccccc23)NC(=O)[C@H](CC(=O)O)NC(=O)[C@H](Cc2ccc(C(=O)O)cc2)NC(=O)[C@H](Cc2ccncc2)NC(=O)CSC[C@@H](C(=O)NCC(N)=O)NC(=O)[C@H](CO)NC(=O)[C@H](C(C)C)NC(=O)[C@H](CC2CCCCC2)NC(=O)[C@H](CCN)NC(=O)[C@@H](C)NC(=O)[C@H](CCCN)NC(=O)[C@H](CCN)NC(=O)[C@H](Cc2ccc(-c3ccccc3)cc2)NC1=O` [Compound 2544] ({CH2CO}-[4Pal][Phe(4-COOH)]DWV[Bip][Dab][Orn][dA][Dab][Cha]VSCG-NH2; thioether N-14), the IC50 was found to be 80.6 nM. As to `Cc1ccc(C[C@@H]2NC(=O)[C@H](C(C)O)NC(=O)CSC[C@@H](C(=O)N[C@@H](CCN)C(N)=O)NC(=O)[C@H](Cc3c[nH]cn3)NC(=O)[C@H](C(C)(C)O)NC(=O)[C@H](CC3CCCCC3)NC(=O)[C@H](CCN)NC(=O)[C@@H](CC(C)C)NC(=O)[C@H](CCCN)NC(=O)[C@H](Cc3ccc(OCC(=O)O)cc3)NC(=O)[C@H](Cc3ccc(-c4ccccc4)cc3)NC(=O)[C@H](Cc3ccc(OCC(=O)O)cc3)NC(=O)[C@H](Cc3cccc(C)c3)NC(=O)[C@H](CC(=O)O)NC2=O)cc1` (stereo partly drawn) [Compound 2671] ({CH2CO}-[Thr(3ξ)][Phe(4-Me)]D[Phe(3-Me)]Y(Carboxymethyl)[Bip]Y(Carboxymethyl)[Orn][dL][Dab][Cha][Val(3-OH)]HC[Dab]-NH2; thioether N-14), the IC50 was determined as 9.2 nM. `CC(C)C[C@H]1NC(=O)[C@H](CCCN)NC(=O)[C@H](CCC(=O)O)NC(=O)[C@H](Cc2ccc(-c3ccccc3)cc2)NC(=O)[C@H](C(C)C)NC(=O)[C@H](Cc2c[nH]c3ccccc23)NC(=O)[C@H](CC(=O)O)NC(=O)[C@H](Cc2ccc(OCC(=O)O)cc2)NC(=O)[C@H](CN)NC(=O)CSC[C@@H](C(=O)N[C@@H](C)C(N)=O)NC(=O)[C@H]([C@@H](C)O)NC(=O)[C@H](C(C)C)NC(=O)[C@H](Cc2cccc(C#N)c2)NC(=O)[C@H](CCN)NC1=O` [Compound 1507] ({CH2CO}-[Dap]Y(Carboxymethyl)DWV[Bip]E[Orn][dL][Dab][Phe(3-CN)]VTCA-NH2; thioether N-14): the IC50 is 154 nM. Consider `C#CC[C@H](NC(=O)[C@@H]1CSCC(=O)N[C@@H](CN)C(=O)N[C@@H](CN=[N+]=[N-])C(=O)N[C@@H](CC(=O)O)C(=O)N[C@@H](Cc2c[nH]c3ccccc23)C(=O)N[C@@H](C(C)C)C(=O)N[C@@H](Cc2ccc(-c3ccccc3)cc2)C(=O)N[C@@H](CCC(=O)O)C(=O)N[C@@H](CCCN)C(=O)N[C@H](CC(C)C)C(=O)N[C@@H](CCN)C(=O)N[C@@H](CC2CCCCC2)C(=O)N[C@@H](C(C)C)C(=O)N[C@@H]([C@@H](C)O)C(=O)N1)C(N)=O` [Compound 1539] ({CH2CO}-[Dap][Dap(N3)]DWV[Bip]E[Orn][dL][Dab][Cha]VTC[Pra]-NH2; thioether N-14), for which the IC50 is 85.7 nM. Regarding `CC(C)C[C@@H]1NC(=O)[C@H](CCN)NC(=O)[C@@H](CC(C)C)NC(=O)[C@H](CCCCN)NC(=O)[C@H](CCCNC(N)=O)NC(=O)[C@H](Cc2ccc(-c3ccccc3)cc2)NC(=O)[C@H](C(C)C)NC(=O)[C@H](Cc2c[nH]c3ccccc23)NC(=O)[C@H](CC(=O)O)NC(=O)[C@H](Cc2ccc(O)cc2)NC(=O)[C@H](CC(N)=O)NC(=O)CSC[C@@H](C(=O)NCC(N)=O)NC(=O)[C@H]([C@@H](C)O)NC(=O)[C@H](C(C)C)NC1=O` [Compound 1116] ({CH2CO}-NYDWV[Bip][Cit]K[dL][Dab]LVTCG-NH2; thioether N-14), the IC50 was 38.5 nM.

As for `CC(C)C[C@@H]1NC(=O)[C@H](CCN)NC(=O)[C@@H](CC(C)C)NC(=O)[C@@H](CC(C)C)NC(=O)[C@H](C(C)C)NC(=O)[C@H](Cc2ccc(-c3ccccc3)cc2)NC(=O)[C@H](C(C)C)NC(=O)[C@H](Cc2c[nH]c3ccccc23)NC(=O)[C@H](CC(=O)O)NC(=O)[C@H](Cc2ccc(O)cc2)NC(=O)[C@H](CC(N)=O)NC(=O)CSC[C@@H](C(=O)N[C@@H](C)C(N)=O)NC(=O)[C@H]([C@@H](C)O)NC(=O)[C@H](C(C)C)NC1=O` [Compound 1032] ({CH2CO}-NYDWV[Bip]V[dL][dL][Dab]LVTCA-NH2; thioether N-14), the IC50 was found to be 15.5 nM. With `CCC(C)[C@@H]1NC(=O)[C@H](Cc2ccc(-c3ccccc3)cc2)NC(=O)[C@H](Cc2ccc(C(=O)O)cc2)NC(=O)[C@H](Cc2cccc(C)c2)NC(=O)[C@H](CC(=O)O)NC(=O)[C@H](Cc2ccc(C(=O)O)cc2)NC(=O)[C@H](Cc2ccncc2)NC(=O)CSC[C@@H](C(=O)N[C@H](C)C(N)=O)NC(=O)[C@H](CCC(=O)O)NC(=O)[C@H](C(C)(C)O)NC(=O)[C@H](CC2CCCCC2)NC(=O)[C@H](CCN)NC(=O)[C@@H](CC(C)C)NC(=O)[C@H](Cc2cnc[nH]2)NC1=O` (stereo partly drawn) [Compound 2666] ({CH2CO}-[4Pal][Phe(4-COOH)]D[Phe(3-Me)][Phe(4-COOH)][Bip][Ile(3ξ)]H[dL][Dab][Cha][Val(3-OH)]EC[dA]-NH2; thioether N-14), the half-inhibitory concentration (IC50) amounted to 101 nM. With `CCC(C)[C@@H]1NC(=O)[C@H](Cc2ccc(-c3ccccc3)cc2)NC(=O)[C@H](Cc2ccc(OCC(=O)O)cc2)NC(=O)[C@H](Cc2cccc(C)c2)NC(=O)[C@H](CC(=O)O)NC(=O)[C@H](Cc2ccc(C(=O)O)cc2)NC(=O)[C@H](Cc2ccncc2)NC(=O)CSC[C@@H](C(=O)N[C@@H](CC(N)=O)C(N)=O)NC(=O)[C@H]([C@@H](C)O)NC(=O)[C@H](C(C)C)NC(=O)[C@H](CC2CCCCC2)NC(=O)[C@H](CCN)NC(=O)[C@@H](CC(C)C)NC(=O)[C@H](CCCN)NC1=O` (stereo partly drawn) [Compound 2315] ({CH2CO}-[4Pal][Phe(4-COOH)]D[Phe(3-Me)]Y(Carboxymethyl)[Bip][Ile(3ξ)][Orn][dL][Dab][Cha]VTCN-NH2; thioether N-14), the concentration for half-maximal inhibition (IC50) came out at 33.1 nM. The result for `CC[C@@H](C)[C@@H]1NC(=O)[C@H](Cc2ccc(-c3ccccc3)cc2)NC(=O)[C@H](C(C)C)NC(=O)[C@H](Cc2c[nH]c3ccccc23)NC(=O)[C@H](CC(=O)O)NC(=O)[C@H](Cc2ccc(C(=O)O)cc2)NC(=O)[C@H](Cc2ccc(OCC(=O)O)cc2)NC(=O)CSC[C@@H](C(=O)N[C@@H](C)C(N)=O)NC(=O)[C@H]([C@@H](C)O)NC(=O)[C@H](C(C)C)NC(=O)[C@H](CC2CCCCC2)NC(=O)[C@H](CCN)NC(=O)[C@@H](CC2CCCCC2)NC(=O)[C@H](CCCN)NC1=O` [Compound 1626] ({CH2CO}-Y(Carboxymethyl)[Phe(4-COOH)]DWV[Bip][aIle][Orn][dCha][Dab][Cha]VTCA-NH2; thioether N-14) reads 51.9 nM. As to `CC(C)C[C@H]1NC(=O)[C@H](CCCN)NC(=O)[C@H](CCC(=O)O)NC(=O)[C@H](Cc2ccc(-c3ccccc3)cc2)NC(=O)[C@H](C(C)C)NC(=O)[C@H](Cc2c[nH]c3ccccc23)NC(=O)[C@H](CC(=O)O)NC(=O)[C@H](Cc2ccc(OCC(=O)O)cc2)NC(=O)[C@H](CN)NC(=O)CSC[C@@H](C(=O)N[C@@H](C)C(N)=O)NC(=O)[C@H]([C@@H](C)O)NC(=O)[C@H](C(C)C)NC(=O)[C@H](Cc2cccc(O)c2)NC(=O)[C@H](CCN)NC1=O` [Compound 1475] ({CH2CO}-[Dap]Y(Carboxymethyl)DWV[Bip]E[Orn][dL][Dab][mTyr]VTCA-NH2; thioether N-14), the IC50 amounted to 120 nM.
